The record followed here is ChEMBL document CHEMBL1201862, “PubChem BioAssay data set” (2004).

Molecules are shown by their SMILES.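 Test compounds were applied to cells in 96-well plates for 48 hours at 5 doses. GI50 marks 50% less growth.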 Calls of active or inactive are those of the source. Rule as the data show it: active = GI50 up to about 1.1 µM and inactive = higher.

Some test systems named below: UACC-257; OVCAR-8; U-251; EKVX; SF-295; SW-620; LOX IMVI; PC-3; IGROV-1; OVCAR-3; HCT-116; MOLT-4; SK-MEL-2; OVCAR-4; HL-60; A549; HT-29; MDA-MB-435; SNB-19; SNB-75.
Assay in all cases: NCI tumour cell line growth inhibition, 48 h

For `CC(C)(C)C1=NN=C2c3ccccc3C(=O)C21` (stereo not given), the GI50 was 62.7 µM (inactive) in the test with UACC-257; 43.6 µM (inactive) in the test on OVCAR-8; 46.9 µM (inactive) with U-251; 27.4 µM (inactive) in the test on EKVX; 39.1 µM (inactive) in the test on SF-295; 65.6 µM (inactive) with SW-620. Besides, the GI50 is 41.1 µM (inactive) with LOX IMVI; 35.6 µM (inactive) in the test with PC-3; 56.1 µM (inactive) with IGROV-1; 37.6 µM (inactive) in the test with OVCAR-3; > 100 µM (inactive) in the test with HCT-116; 22.4 µM (inactive) with MOLT-4. Moreover, the GI50 is 39.8 µM (inactive) in the test with SK-MEL-2; 38.8 µM (inactive) in the test on OVCAR-4; 34.3 µM (inactive) in the test on HL-60; 45.1 µM (inactive) in the test on A549; 28.2 µM (inactive) in the test on HT-29; 41.6 µM (inactive) in the test with MDA-MB-435. In addition, the GI50 with SNB-19 was 91.2 µM (inactive); in the test on SNB-75 it was 79.6 µM (inactive).

With `S=C1N=C(Cl)/C(=C\c2ccco2)N1`, the GI50 in the test with UACC-257, in the test with OVCAR-8, with U-251, with EKVX, in the test with SF-295 and in the test on SW-620 was > 100 µM (inactive) each time. Besides, the GI50 in the test with LOX IMVI is > 100 µM (inactive); in the test on PC-3, > 100 µM (inactive); in the test with IGROV-1, > 100 µM (inactive); in the test with OVCAR-3 it was > 100 µM (inactive); with HCT-116, > 100 µM (inactive); in the test with MOLT-4, > 10 µM (inactive). Also, the GI50 in the test on SK-MEL-2 is > 100 µM (inactive); with OVCAR-4, > 47.2 µM (inactive); with HL-60, > 70.5 µM (inactive); with A549, > 100 µM (inactive); with HT-29 it was > 100 µM (inactive); with MDA-MB-435, > 100 µM (inactive). Also, the GI50 in the test with SNB-19 is > 100 µM (inactive); with SNB-75, > 74.6 µM (inactive).

On to `Cc1c(CNc2ccc(Cl)c(Cl)c2Cl)cnc2nc(N)nc(N)c12`, for which the GI50 with UACC-257 is 0.236 µM (active); in the test with OVCAR-8 it was 0.053 µM (active); in the test with U-251, 0.172 µM (active); with EKVX, 4.2 µM (inactive); in the test on SF-295 it was 0.065 µM (active); in the test with SW-620, 0.179 µM (active). The GI50 is 0.064 µM (active) with LOX IMVI; 2.58 µM (inactive) in the test on PC-3; 0.499 µM (active) in the test with IGROV-1; 13.6 µM (inactive) with OVCAR-3; 0.0208 µM (active) in the test with HCT-116; 0.164 µM (active) with MOLT-4. For the same molecule, the GI50 was 27.1 µM (inactive) with SK-MEL-2; 14.5 µM (inactive) with OVCAR-4; 0.607 µM (active) with HL-60; 0.0352 µM (active) in the test with A549; 0.162 µM (active) in the test on HT-29; 0.107 µM (active) in the test with MDA-MB-435. The GI50 is 14.6 µM (inactive) in the test on SNB-19 and 10.4 µM (inactive) in the test on SNB-75.

As to `CCOC(=O)/C=C(\C(=O)OCC)n1cc(C)c(=O)n(Cc2cnnn2COCCOC(C)=O)c1=O`, the GI50 in the test on UACC-257 is 13.4 µM (inactive); with OVCAR-8, 7.03 µM (inactive); in the test on U-251, 17.7 µM (inactive); in the test on EKVX it was 11.9 µM (inactive); with SF-295, 25.8 µM (inactive); in the test on SW-620 it was 2.18 µM (inactive). In addition, the GI50 was 5.97 µM (inactive) in the test on LOX IMVI; 16 µM (inactive) with PC-3; 8.45 µM (inactive) in the test with IGROV-1; 11.7 µM (inactive) with OVCAR-3; 9.42 µM (inactive) with HCT-116; 2.57 µM (inactive) in the test on MOLT-4. The GI50 with SK-MEL-2 was 19.1 µM (inactive); in the test on OVCAR-4, 15.6 µM (inactive); in the test with HL-60 it was 3.15 µM (inactive); in the test on A549, 21.6 µM (inactive); in the test on HT-29 it was 8.59 µM (inactive); in the test with MDA-MB-435, 8.97 µM (inactive). Besides, the GI50 in the test with SNB-19 was 35.2 µM (inactive); in the test with SNB-75, 18.4 µM (inactive).

As for `CCN=C=NCCCN(C)C`, the GI50 with UACC-257, in the test with OVCAR-8, in the test with U-251, with EKVX, with SF-295 and in the test on SW-620 was > 100 µM (inactive) in each case. Also, the GI50 in the test with LOX IMVI, in the test on PC-3, in the test with IGROV-1, with OVCAR-3, in the test on HCT-116 and in the test on MOLT-4 was > 100 µM (inactive) in each case. Moreover, the GI50 in the test with SK-MEL-2, in the test on OVCAR-4, in the test with HL-60, with A549, in the test with HT-29 and in the test on MDA-MB-435 was > 100 µM (inactive) each time. Moreover, the GI50 in the test on SNB-19 and in the test with SNB-75 was > 100 µM (inactive) each time.

With `CC12CC(C#N)(C#N)C(C#N)(CO1)C(=N)O2` (stereo not given), the GI50 is > 100 µM (inactive) with UACC-257; > 100 µM (inactive) in the test with OVCAR-8; > 100 µM (inactive) in the test on U-251; > 100 µM (inactive) in the test on EKVX; > 100 µM (inactive) in the test with SF-295; 53.6 µM (inactive) with SW-620. Moreover, the GI50 in the test on LOX IMVI is 49.3 µM (inactive); with PC-3, > 100 µM (inactive); in the test with IGROV-1, > 100 µM (inactive); with OVCAR-3, > 100 µM (inactive); in the test on HCT-116, 64.3 µM (inactive); in the test with MOLT-4 it was 54.3 µM (inactive). Also, the GI50 with SK-MEL-2 is > 100 µM (inactive); with OVCAR-4, > 100 µM (inactive); in the test with HL-60 it was 44.2 µM (inactive); in the test on A549 it was > 100 µM (inactive); with HT-29, 69.2 µM (inactive); in the test on MDA-MB-435 it was > 100 µM (inactive). In addition, the GI50 with SNB-19 and with SNB-75 was > 100 µM (inactive) in each case.

On to `O=C(Oc1ccccc1)N1c2ccccc2[C@@]23O[C@]24CCC[C@H]3C#C/C=C\C#C[C@H]14`, for which the GI50 in the test on UACC-257 is 14.9 µM (inactive); in the test on OVCAR-8, 11.9 µM (inactive); with U-251 it was 16.7 µM (inactive); with EKVX it was 14.9 µM (inactive); in the test on SF-295, 17.1 µM (inactive); in the test on SW-620, 11.4 µM (inactive). Further, the GI50 with LOX IMVI is 12.9 µM (inactive); in the test with PC-3, 11.6 µM (inactive); in the test with IGROV-1, 12.4 µM (inactive); in the test on OVCAR-3 it was 13.3 µM (inactive); with HCT-116, 11.4 µM (inactive); with MOLT-4, 0.706 µM (active). Also, the GI50 with SK-MEL-2 was 11.8 µM (inactive); in the test with OVCAR-4, 6.85 µM (inactive); in the test with HL-60, 0.506 µM (active); with A549, 0.0942 µM (active); in the test with HT-29, 11.2 µM (inactive); in the test with MDA-MB-435, 16.1 µM (inactive). Also, the GI50 in the test on SNB-19 was 15.7 µM (inactive); with SNB-75, 8.85 µM (inactive).

As for `COc1ccc(/C=C(\C(=O)OCC(C)C)c2ccc(OC)c(OC)c2)cc1OC`, the GI50 in the test with UACC-257 was > 100 µM (inactive); with OVCAR-8, > 100 µM (inactive); in the test on U-251, 56.2 µM (inactive); in the test with EKVX, > 100 µM (inactive); with SF-295, 69.5 µM (inactive); in the test on SW-620 it was > 100 µM (inactive). Besides, the GI50 with LOX IMVI was 74.6 µM (inactive); in the test with PC-3, > 100 µM (inactive); in the test with IGROV-1, > 100 µM (inactive); with OVCAR-3 it was > 100 µM (inactive); in the test with HCT-116 it was > 100 µM (inactive); in the test with MOLT-4, > 100 µM (inactive). The GI50 in the test on SK-MEL-2, with OVCAR-4, in the test on HL-60, with A549, in the test on HT-29 and with MDA-MB-435 was > 100 µM (inactive) each time. The GI50 with SNB-19 was > 100 µM (inactive); in the test on SNB-75, 47.2 µM (inactive).

Take `COc1ccc(/C=C(\Cl)c2ccc(OC)c(OC)c2)cc1OC`: the GI50 with UACC-257 was > 100 µM (inactive); in the test with OVCAR-8 it was > 100 µM (inactive); with U-251, > 100 µM (inactive); in the test with EKVX, > 100 µM (inactive); in the test on SF-295, > 91.8 µM (inactive); in the test on SW-620, > 100 µM (inactive). The GI50 in the test on LOX IMVI, in the test with PC-3, in the test with IGROV-1, in the test with OVCAR-3, with HCT-116 and in the test on MOLT-4 was > 100 µM (inactive) throughout. The GI50 with SK-MEL-2 is > 100 µM (inactive); in the test on OVCAR-4, > 67.6 µM (inactive); in the test with HL-60 it was > 100 µM (inactive); in the test on A549 it was > 100 µM (inactive); with HT-29, > 100 µM (inactive); in the test with MDA-MB-435, > 100 µM (inactive). In addition, the GI50 with SNB-19 and in the test with SNB-75 was > 100 µM (inactive) each time.

As to `O=C1CC(c2ccccc2)n2cccc21` (stereo not given), the GI50 in the test with UACC-257, in the test with OVCAR-8, with U-251, in the test with EKVX, in the test on SF-295 and in the test with SW-620 was > 100 µM (inactive) throughout. Further, the GI50 in the test on LOX IMVI is > 100 µM (inactive); in the test with PC-3, > 100 µM (inactive); with IGROV-1, > 100 µM (inactive); in the test on OVCAR-3, > 100 µM (inactive); with HCT-116, > 100 µM (inactive); with MOLT-4, > 10 µM (inactive). For the same molecule, the GI50 was > 100 µM (inactive) in the test on SK-MEL-2; > 100 µM (inactive) with OVCAR-4; 65.6 µM (inactive) with HL-60; > 100 µM (inactive) in the test on A549; > 100 µM (inactive) with HT-29; > 100 µM (inactive) with MDA-MB-435. In addition, the GI50 with SNB-19 and in the test on SNB-75 was > 100 µM (inactive) throughout.
